The target in data set [1] is Phosphatidylinositol 4,5-bisphosphate 3-kinase catalytic subunit gamma isoform (Homo sapiens, UniProt P48736). In words: Inhibition of PI3Kgamma by kinobeads assay.
In data set [2] the target is Phosphatidylinositol 4,5-bisphosphate 3-kinase catalytic subunit delta isoform/gamma isoform (Homo sapiens, UniProt P48736+O00329). In words: Inhibition of PI3Kgamma/delta by neutrophil migration assay.
In data set [3] the target is Phosphatidylinositol 4,5-bisphosphate 3-kinase catalytic subunit alpha isoform (Homo sapiens, UniProt P42336). In words: Inhibition of PI3Kalpha assessed as change in pIC50 by kinobeads assay.
Data set [4] addresses Phosphatidylinositol 4,5-bisphosphate 3-kinase catalytic subunit beta isoform (Homo sapiens, UniProt P42338). The experiment in a line: Inhibition of PI3Kbeta assessed as change in pIC50 by kinobeads assay.
Data set [5] deals with T1, Phosphatidylinositol 4,5-bisphosphate 3-kinase catalytic subunit delta isoform (Homo sapiens, UniProt O00329).
T1 sequence (O00329 whole entry): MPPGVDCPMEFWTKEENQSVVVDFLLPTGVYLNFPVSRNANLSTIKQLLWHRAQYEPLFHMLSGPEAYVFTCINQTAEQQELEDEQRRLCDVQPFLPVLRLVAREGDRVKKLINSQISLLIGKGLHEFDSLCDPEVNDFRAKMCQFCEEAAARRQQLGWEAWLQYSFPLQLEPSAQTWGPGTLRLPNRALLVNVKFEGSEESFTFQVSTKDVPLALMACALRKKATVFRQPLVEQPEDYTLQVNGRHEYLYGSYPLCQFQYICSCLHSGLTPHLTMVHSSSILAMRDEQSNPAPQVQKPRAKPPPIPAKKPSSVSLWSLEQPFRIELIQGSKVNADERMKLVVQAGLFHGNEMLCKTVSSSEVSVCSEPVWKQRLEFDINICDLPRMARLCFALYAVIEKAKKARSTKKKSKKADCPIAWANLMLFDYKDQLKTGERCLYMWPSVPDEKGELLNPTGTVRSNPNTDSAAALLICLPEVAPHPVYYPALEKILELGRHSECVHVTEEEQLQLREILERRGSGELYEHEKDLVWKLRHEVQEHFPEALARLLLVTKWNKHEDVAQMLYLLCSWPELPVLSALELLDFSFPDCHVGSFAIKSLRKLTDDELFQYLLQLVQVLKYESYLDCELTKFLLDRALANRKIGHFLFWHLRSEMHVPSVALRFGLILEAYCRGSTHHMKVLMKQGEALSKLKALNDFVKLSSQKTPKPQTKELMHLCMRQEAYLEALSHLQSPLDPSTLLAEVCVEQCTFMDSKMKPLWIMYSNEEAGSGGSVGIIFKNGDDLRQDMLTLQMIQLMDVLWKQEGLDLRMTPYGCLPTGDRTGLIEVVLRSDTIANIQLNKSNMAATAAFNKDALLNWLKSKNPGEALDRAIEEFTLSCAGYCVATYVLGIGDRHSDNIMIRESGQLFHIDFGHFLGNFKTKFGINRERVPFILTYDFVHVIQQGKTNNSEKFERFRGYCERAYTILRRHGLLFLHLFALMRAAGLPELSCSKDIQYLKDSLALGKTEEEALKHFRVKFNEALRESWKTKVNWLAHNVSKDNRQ
The experiment in a line: Inhibition of PI3Kdelta assessed as change in pIC50 by kinobeads assay.

The subject of a further data set is Mus musculus. In words: Antiinflammatory activity in mouse IL-8-induced air-pouch model assessed as inhibition of granulocyte migration at 3 mg/kg, po. Set-up: scale not given: the % may be the effect or the level left.
Another data set relates to Liver microsomes. In words: Volume of distribution at steady state […] at 5 mg/kg, po. The format is ADME, organism-based. Set-up: dose 5 mg/kg, route oral.
The nature of data set [6]: Half life in rat […] at 5 mg/kg, po. The format is ADME, organism-based. Details: dose 5 mg/kg, route oral.
Data set [7] is described as follows: Cmax in rat […] at 5 mg/kg, po. Set-up: dose 5 mg/kg, route oral. The format is ADME, organism-based. Background: Microsomes from liver hold many membrane-bound enzymes, among them those of drug oxidation.
The nature of data set [8]: AUC in rat […] at 5 mg/kg, po. In kind it is ADME, organism-based. Set-up: dose 5 mg/kg, route oral.
Data set [9] can be described thus: Oral bioavailability in Wistar rat at 5 mg/kg. To be noted: in vivo.
For data set [10], the system named is Hepatocyte. The experiment in a line: Metabolic stability in human hepatocytes measured per gram of tissue. The format is ADME, cell-based.
Data set [11] deals with Hepatocyte. The experiment in a line: Metabolic stability in rat hepatocytes measured per gram of tissue. The format is ADME, cell-based.
The test system of data set [12] is Hepatocyte. In words: Metabolic stability in mouse hepatocytes measured per gram of tissue. The format is ADME, cell-based.

Structures are written as SMILES. Bounds are passed on as bounds.

Chain of Phosphatidylinositol 4,5-bisphosphate 3-kinase catalytic subunit gamma isoform (P48736 whole entry, canonical isoform): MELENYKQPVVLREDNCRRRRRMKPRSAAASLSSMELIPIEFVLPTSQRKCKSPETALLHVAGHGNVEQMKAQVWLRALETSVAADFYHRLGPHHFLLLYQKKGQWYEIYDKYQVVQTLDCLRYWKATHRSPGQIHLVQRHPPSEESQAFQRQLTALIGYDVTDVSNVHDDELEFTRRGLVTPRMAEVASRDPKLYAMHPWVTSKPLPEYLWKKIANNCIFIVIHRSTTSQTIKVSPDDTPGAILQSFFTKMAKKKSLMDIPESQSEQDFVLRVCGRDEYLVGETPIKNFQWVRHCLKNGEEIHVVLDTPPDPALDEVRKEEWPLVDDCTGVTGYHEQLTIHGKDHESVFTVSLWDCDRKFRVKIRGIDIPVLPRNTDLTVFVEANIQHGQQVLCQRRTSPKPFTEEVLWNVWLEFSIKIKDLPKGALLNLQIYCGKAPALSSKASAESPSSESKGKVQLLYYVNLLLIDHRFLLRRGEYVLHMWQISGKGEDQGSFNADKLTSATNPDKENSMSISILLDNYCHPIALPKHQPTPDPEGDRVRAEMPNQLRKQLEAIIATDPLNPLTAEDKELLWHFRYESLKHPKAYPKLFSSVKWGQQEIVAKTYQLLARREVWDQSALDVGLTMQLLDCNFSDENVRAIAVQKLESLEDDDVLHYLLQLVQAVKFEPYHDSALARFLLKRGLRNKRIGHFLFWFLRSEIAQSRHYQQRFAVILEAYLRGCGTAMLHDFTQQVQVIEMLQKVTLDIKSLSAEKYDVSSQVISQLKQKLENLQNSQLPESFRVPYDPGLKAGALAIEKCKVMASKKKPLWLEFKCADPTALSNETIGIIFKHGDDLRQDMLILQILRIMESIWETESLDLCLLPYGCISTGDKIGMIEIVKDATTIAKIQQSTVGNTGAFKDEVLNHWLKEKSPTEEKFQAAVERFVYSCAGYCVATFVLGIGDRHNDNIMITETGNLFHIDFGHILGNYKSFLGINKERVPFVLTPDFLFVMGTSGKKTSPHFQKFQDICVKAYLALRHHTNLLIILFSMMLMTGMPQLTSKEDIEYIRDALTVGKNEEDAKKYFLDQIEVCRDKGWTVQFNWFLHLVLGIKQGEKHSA
Chain of Phosphatidylinositol 4,5-bisphosphate 3-kinase catalytic subunit alpha isoform (P42336 whole entry, canonical isoform): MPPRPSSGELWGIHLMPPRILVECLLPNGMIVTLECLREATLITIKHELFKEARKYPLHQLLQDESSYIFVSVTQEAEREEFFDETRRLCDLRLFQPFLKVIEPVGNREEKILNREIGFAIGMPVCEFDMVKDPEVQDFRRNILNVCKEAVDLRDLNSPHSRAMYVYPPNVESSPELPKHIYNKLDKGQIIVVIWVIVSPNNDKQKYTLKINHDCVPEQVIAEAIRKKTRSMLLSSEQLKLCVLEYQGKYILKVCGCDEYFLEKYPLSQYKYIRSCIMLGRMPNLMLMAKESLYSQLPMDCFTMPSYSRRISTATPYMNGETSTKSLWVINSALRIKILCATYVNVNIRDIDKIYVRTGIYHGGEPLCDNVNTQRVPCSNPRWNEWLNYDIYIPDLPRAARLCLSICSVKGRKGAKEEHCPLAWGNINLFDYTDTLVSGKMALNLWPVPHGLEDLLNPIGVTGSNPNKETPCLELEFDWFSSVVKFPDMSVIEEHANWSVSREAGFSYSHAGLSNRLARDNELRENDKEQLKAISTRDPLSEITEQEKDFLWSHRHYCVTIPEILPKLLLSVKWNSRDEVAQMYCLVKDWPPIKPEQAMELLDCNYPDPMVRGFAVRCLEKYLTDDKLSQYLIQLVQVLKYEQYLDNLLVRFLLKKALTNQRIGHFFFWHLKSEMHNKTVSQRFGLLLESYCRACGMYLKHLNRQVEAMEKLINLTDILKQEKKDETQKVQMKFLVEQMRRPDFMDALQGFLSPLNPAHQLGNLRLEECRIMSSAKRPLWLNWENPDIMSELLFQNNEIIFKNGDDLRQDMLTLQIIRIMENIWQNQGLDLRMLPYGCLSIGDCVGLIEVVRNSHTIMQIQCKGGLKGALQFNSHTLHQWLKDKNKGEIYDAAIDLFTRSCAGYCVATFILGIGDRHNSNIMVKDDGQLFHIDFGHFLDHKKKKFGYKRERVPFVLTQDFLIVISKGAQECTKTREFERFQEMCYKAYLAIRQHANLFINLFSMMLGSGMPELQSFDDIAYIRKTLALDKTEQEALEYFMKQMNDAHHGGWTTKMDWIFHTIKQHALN
Chain of Phosphatidylinositol 4,5-bisphosphate 3-kinase catalytic subunit beta isoform (P42338 whole entry, canonical isoform): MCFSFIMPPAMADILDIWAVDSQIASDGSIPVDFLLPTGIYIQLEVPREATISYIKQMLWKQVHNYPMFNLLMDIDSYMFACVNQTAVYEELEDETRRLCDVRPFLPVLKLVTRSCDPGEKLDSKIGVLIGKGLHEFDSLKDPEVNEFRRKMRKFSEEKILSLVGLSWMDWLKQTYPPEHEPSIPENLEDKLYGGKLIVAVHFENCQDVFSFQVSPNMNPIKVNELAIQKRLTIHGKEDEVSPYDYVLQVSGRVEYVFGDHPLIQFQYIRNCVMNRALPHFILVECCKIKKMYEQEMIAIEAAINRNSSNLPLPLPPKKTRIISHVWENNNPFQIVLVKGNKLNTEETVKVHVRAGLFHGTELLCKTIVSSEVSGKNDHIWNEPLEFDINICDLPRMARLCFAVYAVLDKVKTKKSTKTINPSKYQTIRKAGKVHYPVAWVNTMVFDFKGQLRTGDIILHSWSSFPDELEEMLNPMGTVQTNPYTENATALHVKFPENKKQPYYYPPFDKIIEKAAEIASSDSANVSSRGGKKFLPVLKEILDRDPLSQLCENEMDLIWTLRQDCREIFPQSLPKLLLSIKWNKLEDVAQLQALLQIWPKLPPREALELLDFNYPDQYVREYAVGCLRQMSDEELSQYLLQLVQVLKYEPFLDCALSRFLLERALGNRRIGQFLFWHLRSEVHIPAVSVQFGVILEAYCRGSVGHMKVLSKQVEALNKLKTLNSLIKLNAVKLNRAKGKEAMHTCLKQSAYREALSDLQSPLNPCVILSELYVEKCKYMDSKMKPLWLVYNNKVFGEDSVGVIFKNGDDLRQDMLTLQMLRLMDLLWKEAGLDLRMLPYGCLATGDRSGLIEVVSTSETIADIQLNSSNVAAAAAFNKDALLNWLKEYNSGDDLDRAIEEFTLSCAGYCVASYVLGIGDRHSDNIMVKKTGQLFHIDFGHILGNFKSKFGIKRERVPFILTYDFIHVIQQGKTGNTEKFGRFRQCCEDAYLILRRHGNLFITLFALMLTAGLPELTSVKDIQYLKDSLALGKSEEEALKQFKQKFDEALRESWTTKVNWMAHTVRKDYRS

The term IC50 denotes the concentration at which inhibition is half-maximal. One may read the pIC50 as the IC50 on a negative log10 scale, so that one unit is a factor of ten. Turning to `Nc1nc2cc(-c3cncc(S(=O)(=O)NCC(F)(F)F)c3)ccn2n1`, half-maximal inhibition in data set [1] (IC50) required 0.02 µM. This compound gave a pIC50 in [2] of 5.9.

In data set [1], `CC1(C)CCN1S(=O)(=O)c1cncc(-c2ccn3nc(N)nc3c2)c1` gave an IC50 of 0.0251 µM. For the same compound, in data set [2], the pIC50 is 5.7.

In turn, `CC(C)(NS(=O)(=O)c1cncc(-c2ccn3nc(N)nc3c2)c1)C(F)(F)F` gave an IC50 in [1] of 0.02 µM. This compound displayed a pIC50 in data set [2] of 5.6.

Take `CC(C)(C)NS(=O)(=O)c1cncc(-c2cc(F)c3nc(N)nn3c2)c1`: the IC50 in data set [1] is 0.0251 µM; in data set [3], over 10 µM; in data set [4] it was 1 µM; in data set [5] it was 7.94 µM. In addition, the Activity in the data set with Mus musculus is given as 29%.

In [1], `CC(C)NS(=O)(=O)c1cncc(-c2ccn3nc(N)nc3c2)c1` showed an IC50 of 0.0251 µM. The same compound registered a pIC50 in data set [2] of 6.3.

Take `Nc1nc2cc(-c3cncc(S(N)(=O)=O)c3)ccn2n1`: the IC50 in data set [1] was 0.02 µM. This compound also showed a pIC50 in data set [2] of 6.1.

As for `Nc1nc2cc(-c3cncc(S(=O)(=O)NCc4ccccc4)c3)ccn2n1`, the IC50 in data set [1] was 0.1 µM.

Usually half-life stands for the time in which the quantity being followed falls by half. In general, Cmax refers to the maximum level reached in the sampled fluid or tissue. Usually AUC stands for concentration integrated over time. One may read the bioavailability as the share of a dose that reaches the circulation, judged against a reference dose that is usually intravenous. `CNS(=O)(=O)c1cncc(-c2ccn3nc(N)nc3c2)c1`: the IC50 in data set [1] was 0.0251 µM. In addition, the pIC50 in data set [2] worked out at 6.3. The compound also registered a Vdss in the data set on Liver microsomes of 2.2 L/kg. Besides, the half-life in data set [6] was 1.2 h. The compound also yielded a peak concentration (Cmax) in [7] of 5 µM. This compound also displayed an AUC in [8] of 6.7 µM·h. In data set [9], this compound showed a bioavailability of 56%.

For `Nc1nc2cc(-c3cncc(S(=O)(=O)Nc4ccccc4)c3)ccn2n1`, the IC50 in data set [1] was 0.0398 µM. In data set [2], this compound gave a pIC50 of 5.

In data set [1], `CC(C)(C)NS(=O)(=O)c1cncc(-c2cc(F)n3nc(N)nc3c2)c1` had an IC50 of 0.0158 µM. This compound also came in with a pIC50 in data set [2] of 6.1. Besides, the CLint with Hepatocyte [10] is 2.5 mL/min/g; with Hepatocyte [11], 7.5 mL/min/g; with Hepatocyte [12] it was 36.1 mL/min/g.

Compound `CCN(CC)S(=O)(=O)c1cncc(-c2ccn3nc(N)nc3c2)c1` showed an IC50 in data set [1] of 0.00794 µM. Also, the pIC50 in data set [2] turned out to be 5.9.

Turning to `CCCNS(=O)(=O)c1cncc(-c2ccn3nc(N)nc3c2)c1`, the results for the IC50 in data set [1] and in [5] were 0.0316 µM and under 20000 µM, respectively. For the same compound, the pIC50 in data set [2] came to 6.2.

As for `CS(=O)(=O)c1cncc(-c2ccn3nc(N)nc3c2)c1`, in [1], the IC50 was 0.0794 µM.

For the origin of these results see ChEMBL document CHEMBL2203257 (Bioorg Med Chem Lett, 2012).
